# In ChEMBL document CHEMBL2074256, “HIV protease inhibitors are inhibitors but not substrates of the human breast cancer resistance protein (BCRP/ABCG2)” (J Pharmacol Exp Ther, 2004):
# Target: T1, Broad substrate specificity ATP-binding cassette transporter ABCG2 (Homo sapiens, UniProt Q9UNQ0)
# T1 sequence (Q9UNQ0 whole entry): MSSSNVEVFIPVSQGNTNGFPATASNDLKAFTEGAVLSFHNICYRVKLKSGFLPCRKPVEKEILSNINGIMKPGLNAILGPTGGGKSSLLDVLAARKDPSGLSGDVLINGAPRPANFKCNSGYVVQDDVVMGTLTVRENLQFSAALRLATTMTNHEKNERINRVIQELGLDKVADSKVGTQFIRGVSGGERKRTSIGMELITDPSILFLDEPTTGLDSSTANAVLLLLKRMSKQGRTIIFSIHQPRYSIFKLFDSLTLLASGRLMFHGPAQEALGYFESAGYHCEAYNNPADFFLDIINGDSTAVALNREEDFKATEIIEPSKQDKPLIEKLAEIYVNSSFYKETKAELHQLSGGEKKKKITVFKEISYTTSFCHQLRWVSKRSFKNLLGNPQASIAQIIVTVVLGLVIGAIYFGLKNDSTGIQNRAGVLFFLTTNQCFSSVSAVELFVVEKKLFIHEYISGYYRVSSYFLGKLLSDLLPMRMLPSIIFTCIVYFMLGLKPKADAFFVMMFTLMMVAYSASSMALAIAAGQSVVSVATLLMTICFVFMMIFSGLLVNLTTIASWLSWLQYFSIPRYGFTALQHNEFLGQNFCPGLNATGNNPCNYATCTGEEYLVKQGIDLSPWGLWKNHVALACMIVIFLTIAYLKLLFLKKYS
# Assay: TP_TRANSPORTER: increase in mitoxantrone intracellular accumulation in BCRP-expressing HEK cells
# Format: functional, cell-based, HEK293
smiles,measurement,value
Cc1c(O)cccc1C(=O)N[C@@H](CSc1ccccc1)[C@H](O)CN1C[C@H]2CCCC[C@H]2C[C@H]1C(=O)NC(C)(C)C,IC50,12.5 µM
CC(C)(C)NC(=O)[C@@H]1C[C@@H]2CCCC[C@@H]2CN1C[C@@H](O)[C@H](Cc1ccccc1)NC(=O)[C@H](CC(N)=O)NC(=O)c1ccc2ccccc2n1,IC50,19.5 µM
